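The compound was tested at five concentrations on cells cultured in 96-well plates, with a 48-hour exposure period. TGI is the concentration that stops growth completely.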

Some test systems named below: SF-295 CNS; HS 578T breast; RPMI-8226 leukemia; MALME-3M melanoma; TK-10 renal; DU-145 prostate; CAKI-1 renal; UO-31 renal.
Common to all, as to assay: NCI-60 cell line screen, 48 h

On to `Cc1nc2sc3ccccc3n2c(=O)c1N=Nc1ccc(Cl)cc1`, for which the TGI in the assay on SF-295 CNS, in the assay on HS 578T breast, in the assay with RPMI-8226 leukemia, in the assay on MALME-3M melanoma, with TK-10 renal and in the assay with DU-145 prostate was over 100 µM throughout. Also, the TGI in the assay on CAKI-1 renal was over 100 µM.

In the case of `COc1ccc(NS(=O)(=O)c2ccc(NC(NC(=O)CC(C)C)(C(F)(F)F)C(F)(F)F)cc2)nn1`, the TGI in the assay with UO-31 renal, in the assay on SF-295 CNS, with HS 578T breast, in the assay with RPMI-8226 leukemia, with MALME-3M melanoma and in the assay with TK-10 renal was over 100 µM in each case. Also, the TGI with DU-145 prostate and in the assay with CAKI-1 renal was over 100 µM throughout.

On to `COc1nc2nccnc2c(=O)n1C`, for which the TGI with UO-31 renal, with SF-295 CNS, with HS 578T breast, with RPMI-8226 leukemia, with MALME-3M melanoma and in the assay on TK-10 renal was over 10 µM each time. Besides, the TGI with DU-145 prostate and with CAKI-1 renal was over 10 µM each time.

For the molecule `COc1ccc(/C=C2\N=C(SC)NC2=O)cc1`, the TGI with UO-31 renal was 45.3 µM; in the assay on SF-295 CNS it was over 100 µM; in the assay with HS 578T breast, over 100 µM; in the assay with RPMI-8226 leukemia it was over 100 µM; with MALME-3M melanoma, over 100 µM; with TK-10 renal, over 100 µM. The TGI with DU-145 prostate and in the assay with CAKI-1 renal was over 100 µM throughout.

Regarding `NC(CCC(=O)NC(CSCC1C(=O)Nc2ccccc21)C(=O)NCC(=O)O)C(=O)O` (stereo not given), the TGI in the assay on UO-31 renal was 1.74 µM; with SF-295 CNS, over 45.6 µM; in the assay on HS 578T breast it was over 100 µM; in the assay on RPMI-8226 leukemia it was 6.52 µM; in the assay on MALME-3M melanoma, 20 µM; with TK-10 renal, 18.9 µM. For the same molecule, the results for the TGI with DU-145 prostate and in the assay with CAKI-1 renal were 12.9 µM and 9.95 µM, respectively.

Take `CCN1CCC(O)(/C=C/c2ccc(C)cc2C)C(C(=O)/C=C/c2ccc(C)cc2C)C1` (stereo not given): the TGI with UO-31 renal is 6.66 µM; in the assay with SF-295 CNS, 4.94 µM; with HS 578T breast it was 5.38 µM; in the assay on RPMI-8226 leukemia, over 21.2 µM; in the assay on MALME-3M melanoma it was 11.4 µM; in the assay with TK-10 renal it was 3.41 µM. For the same molecule, the TGI with DU-145 prostate was 10.5 µM; in the assay with CAKI-1 renal it was 9.85 µM.

`Nc1nc(Cl)cc(NCC2(CO)CCCC2)n1`: the TGI in the assay on UO-31 renal, in the assay on SF-295 CNS, with HS 578T breast, with RPMI-8226 leukemia, with MALME-3M melanoma and in the assay on TK-10 renal was over 100 µM throughout. The TGI in the assay with DU-145 prostate and in the assay with CAKI-1 renal was over 100 µM in each case.

`COc1ccc2c(cnc3c4cc(OC)c(OC)cc4ccc23)c1`: the TGI in the assay with UO-31 renal, in the assay with SF-295 CNS, with HS 578T breast, in the assay on MALME-3M melanoma, in the assay with TK-10 renal and in the assay on DU-145 prostate was over 100 µM each time. Moreover, in the assay with CAKI-1 renal, the TGI was over 100 µM.

As for `O=C(O)c1ccc(OCc2nc3cc(C(F)(F)F)ccc3nc2-c2ccccc2)cc1`, the TGI in the assay on UO-31 renal was 39 µM; in the assay with SF-295 CNS, over 100 µM; in the assay with HS 578T breast it was over 100 µM; in the assay on TK-10 renal, over 100 µM; in the assay on DU-145 prostate it was over 100 µM; in the assay on CAKI-1 renal, 19.6 µM.

As for `O=C1c2ccccc2C2(c3ccc(Cl)cc3)N[C@H]3CCCC[C@@H]3N12` (stereo not given in full), the TGI in the assay with UO-31 renal, in the assay on SF-295 CNS, in the assay with HS 578T breast, with RPMI-8226 leukemia, in the assay on TK-10 renal and in the assay on DU-145 prostate was over 100 µM throughout. The same molecule showed a TGI in the assay with CAKI-1 renal of over 100 µM.

Regarding `C=CC[C@]12C=C(OC)[C@@H](O)[C@](OC)(C(c3cc(OC)c4c(c3)OCO4)[C@H]1C)[C@H]2OC(C)=O` (stereo not given in full), the TGI with UO-31 renal, with SF-295 CNS, in the assay on HS 578T breast, with RPMI-8226 leukemia, with MALME-3M melanoma and with TK-10 renal was over 100 µM in each case. Further, the TGI in the assay with DU-145 prostate and in the assay on CAKI-1 renal was over 100 µM in each case.

`Cc1ccc2c(c1)C(=O)C1(C2)Cc2cccc(C)c2C1=O` (stereo not given): the TGI with UO-31 renal, with SF-295 CNS, with HS 578T breast, in the assay on RPMI-8226 leukemia, in the assay with MALME-3M melanoma and in the assay with TK-10 renal was over 100 µM in each case. Besides, the TGI with DU-145 prostate is over 100 µM; with CAKI-1 renal it was 32.4 µM.

In the case of `O=C1O[C@H](c2ccc3c(c2)OCO3)[C@H]2CO[C@@H](c3ccc4c(c3)OCO4)[C@@H]12`, the TGI in the assay on UO-31 renal, in the assay on SF-295 CNS, with HS 578T breast, with RPMI-8226 leukemia, with MALME-3M melanoma and in the assay on TK-10 renal was over 100 µM throughout. The same molecule came in with a TGI with CAKI-1 renal of over 100 µM.

On to `N#CC1=C(N)N(c2ccccc2)C(c2ccccc2)C1(C#N)C#N` (stereo not given), for which the TGI in the assay with UO-31 renal was 34.8 µM; in the assay with SF-295 CNS, 61.1 µM; in the assay on HS 578T breast, over 100 µM; with RPMI-8226 leukemia it was 37 µM; in the assay on MALME-3M melanoma it was 35.6 µM; in the assay with TK-10 renal it was 31.8 µM. Moreover, the TGI in the assay with DU-145 prostate was 32.9 µM; with CAKI-1 renal, over 100 µM.

Regarding `CC(C)(Cl)C(Br)CCC(=CCCl)CBr` (mixture of isomers), the TGI in the assay with UO-31 renal amounted to 3.42 µM; with SF-295 CNS it was 13 µM; with HS 578T breast it was 16.4 µM; with RPMI-8226 leukemia it was 4.38 µM; in the assay with MALME-3M melanoma, 4.85 µM; in the assay with TK-10 renal, 5.21 µM. The molecule also showed a TGI in the assay on DU-145 prostate of 10.7 µM.

`CC1CCCC(CC(=O)O)(CC(=O)O)C1` (stereo not given): the TGI with UO-31 renal, in the assay with HS 578T breast, in the assay on RPMI-8226 leukemia, in the assay on MALME-3M melanoma, with TK-10 renal and in the assay on CAKI-1 renal was over 100 µM throughout.

Take `CC(C)CC(O)P(=O)(O)O` (stereo not given): the TGI with UO-31 renal, in the assay on SF-295 CNS, in the assay on RPMI-8226 leukemia, in the assay on TK-10 renal, in the assay with DU-145 prostate and with CAKI-1 renal was over 100 µM throughout.
